Some test systems named below: Bacillus subtilis 168; Escherichia coli B; Pseudomonas aeruginosa; Staphylococcus aureus 1; Staphylococcus aureus; Candida glabrata 090902; Bacillus subtilis; Candida albicans; Escherichia coli; Micrococcus luteus; Proteus mirabilis; Saccharomyces cerevisiae; Salmonella typhimurium; Serratia marcescens; Shigella dysenteriae.
Holding throughout (assay): ≥ marks a high value that may be exact or a test limit, other limits are often not marked, values filed in µg/mL are converted to µM
The subject of assay [1] is Candida albicans ATCC 64550.
The test system of assay [2] is Pseudomonas aeruginosa PAO1.
Assay [3] deals with Candida albicans F7-39/IDE99.
Assay [4] concerns Micrococcus luteus CCM 144.
For assay [5], the system named is Pseudomonas aeruginosa ATCC 27853.
Assay [6] relates to Staphylococcus aureus ATCC 43300.
The subject of assay [7] is Staphylococcus epidermidis.
Assay [8] concerns Enterococcus faecalis 981.
Assay [9] concerns Nocardia asteroides 201118.
The test system of assay [10] is Psychrobacter faecalis X29.
Assay [11] deals with Staphylococcus aureus ATCC 25923.
The subject of assay [12] is Bacillus subtilis ATCC 23857.
Assay [13] deals with Escherichia coli ATCC 25922.
The test system of assay [14] is Bacillus subtilis ATCC 6633.
Assay [15] relates to Candida albicans ATCC 2002.
Assay [16] deals with Staphylococcus aureus ATCC 2592.
Assay [17] has as its system Acinetobacter baumannii ATCC 7978.
The subject of assay [18] is Klebsiella pneumoniae WGLW2.
Assay [19] deals with Pseudomonas aeruginosa PA14.
Assay [20] deals with Staphylococcus aureus ATCC 29231.

Molecules are shown by their SMILES. In brackets after ≈: the same amount, converted by molar mass. Bounds are passed on as bounds.

As a reminder, the MIC is the lowest concentration found to suppress growth. Low values mean inhibition by little substance, high ones a need for much substance.

As to `CC[C@H](C)[C@H](NC(=O)[C@H](CCCN=C(N)N)NC(=O)[C@H](CC(C)C)NC(=O)[C@H](CCCN=C(N)N)NC(=O)[C@@H](N)C(C)C)C(=O)N[C@@H](CCCN=C(N)N)C(=O)N[C@H](C(=O)N[C@@H](C)C(N)=O)C(C)C` [VRLRIRVA], the MIC in assay [1] came out at 25 µM (≈ 24.5 µg/mL); in assay [2], 10.2 µM (≈ 9.99 µg/mL).

On to `CC[C@H](C)[C@H](NC(=O)CN)C(=O)N[C@@H](CCSC)C(=O)N[C@@H](CO)C(=O)N[C@@H](CO)C(=O)N[C@@H](CC(C)C)C(=O)N[C@@H](CCSC)C(=O)N[C@@H](CCCCN)C(=O)N[C@@H](CCCCN)C(=O)N[C@@H](CC(C)C)C(=O)N[C@@H](CCCCN)C(=O)N[C@@H](CCCCN)C(=O)N[C@H](C(=O)N[C@H](C(=O)N[C@@H](CCCCN)C(=O)N[C@@H](CCCCN)C(N)=O)[C@@H](C)CC)[C@@H](C)CC` [GIMSSLMKKLKKIIKK], for which the minimal inhibitory concentration (MIC) was found to be 7 µM (≈ 12.9 µg/mL) against Bacillus subtilis 168; 6.3 µM (≈ 11.6 µg/mL) in assay [3]; 22 µM (≈ 40.6 µg/mL) with Escherichia coli B; 3 µM (≈ 5.54 µg/mL) in [4]; 7.1 µM (≈ 13.1 µg/mL) in assay [5]; 9.9 µM (≈ 18.3 µg/mL) in the assay with Pseudomonas aeruginosa. Moreover, the MIC in the assay on Staphylococcus aureus 1 was determined as 18 µM (≈ 33.2 µg/mL); in assay [6], 54 µM (≈ 99.7 µg/mL); with Staphylococcus aureus, 65 µM (≈ 120 µg/mL); in [7], 1.7 µM (≈ 3.14 µg/mL).

Consider `CC[C@H](C)[C@@H]1NC(=O)[C@H](CCC(=O)O)NC(=O)[C@@H](NC(=O)[C@@H](NC(=O)[C@@H](NC(=O)[C@H](CCCCN)NC(=O)[C@@H]2CCCN2C(=O)[C@H](CC(C)C)NC(=O)[C@H](Cc2ccccc2)NC(=O)[C@H](CC(C)C)NC(=O)[C@@H]2CCCN2C(=O)[C@H](CC(C)C)NC(=O)[C@@H](N)Cc2ccccc2)[C@@H](C)CC)[C@@H](C)CC)CSSC[C@@H](C(=O)O)NC(=O)[C@H](CCCCN)NC(=O)[C@H](CCCCN)NC(=O)[C@H]([C@@H](C)O)NC1=O` [FLPLFLPKIICEITKKC], for which the MIC against Candida glabrata 090902 is 25 µM (≈ 50.1 µg/mL); in [8] it was not below 50 µM; in assay [9], 25 µM (≈ 50.1 µg/mL); in [10], not below 50 µM; in assay [11] it was 100 µM (≈ 200 µg/mL).

In the case of `CC(C)C[C@H](NC(=O)[C@H](CC(C)C)NC(=O)[C@H](CCCCN)NC(=O)[C@H](CCCCN)NC(=O)[C@H](Cc1c[nH]c2ccccc12)NC(=O)[C@H](Cc1c[nH]c2ccccc12)NC(=O)[C@H](CCCCN)NC(=O)[C@H](CC(C)C)NC(=O)[C@H](CC(C)C)NC(=O)[C@@H](N)CCCCN)C(N)=O` [KLLKWWKKLL], the minimal inhibitory concentration (MIC) in assay [12] worked out at 8 µM (≈ 10.8 µg/mL); in assay [1], 12.5 µM (≈ 16.9 µg/mL); in assay [13], 16 µM (≈ 21.7 µg/mL); in assay [5], 8 µM (≈ 10.8 µg/mL); in assay [11] it was 16 µM (≈ 21.7 µg/mL).

Regarding `CC[C@H](C)[C@H](NC(=O)CN)C(=O)N[C@@H](CC(C)C)C(=O)N[C@@H](CC(=O)O)C(=O)N[C@H](C(=O)N[C@@H](CC(C)C)C(=O)N[C@@H](CCCCN)C(=O)N[C@@H](CCC(N)=O)C(=O)N[C@@H](Cc1ccccc1)C(=O)N[C@@H](C)C(=O)N[C@@H](CCCCN)C(=O)NCC(=O)N[C@H](C(=O)NCC(=O)N[C@@H](CCCCN)C(=O)N[C@@H](CC(=O)O)C(=O)N[C@@H](CC(C)C)C(=O)N[C@H](C(=O)N[C@@H](CCCCN)C(=O)NCC(=O)N[C@@H](C)C(=O)N[C@@H](C)C(=O)N[C@@H](CCC(N)=O)C(=O)NCC(=O)N[C@H](C(=O)O)C(C)C)C(C)C)C(C)C)[C@@H](C)O` [GILDTLKQFAKGVGKDLVKGAAQGV], the minimum inhibitory concentration (MIC) with Bacillus subtilis is not below 39.8 µM; against Candida albicans, more than 39.8 µM; with Escherichia coli, 19.9 µM (≈ 50 µg/mL); with Micrococcus luteus, 1.99 µM (≈ 5 µg/mL); in the assay on Proteus mirabilis, 19.9 µM (≈ 50 µg/mL); in the assay on Pseudomonas aeruginosa, 39.8 µM (≈ 100 µg/mL). Also, the MIC against Saccharomyces cerevisiae was 19.9 µM (≈ 50 µg/mL); against Salmonella typhimurium, not below 39.8 µM; in the assay on Serratia marcescens, not below 39.8 µM; against Shigella dysenteriae, 19.9 µM (≈ 50 µg/mL); in assay [7], 29.8 µM (≈ 75 µg/mL).

Take `CC(C)C[C@H](NC(=O)CNC(=O)[C@@H](NC(=O)[C@H](CCCCN)NC(=O)CNC(=O)[C@H](C)NC(=O)[C@H](Cc1c[nH]c2ccccc12)NC(=O)[C@H](CCCCN)NC(=O)[C@H](CC(C)C)NC(=O)[C@H](CC(C)C)NC(=O)[C@H](Cc1ccccc1)NC(=O)[C@H](CCCCN)NC(=O)[C@H](CC(C)C)NC(=O)[C@@H](NC(=O)[C@H](Cc1ccccc1)NC(=O)[C@@H](N)Cc1ccccc1)C(C)C)C(C)C)C(=O)N[C@@H](CCC(=O)O)C(=O)N[C@@H](Cc1cnc[nH]1)C(=O)N[C@@H](CC(C)C)C(=O)N[C@@H](C)C(=O)N[C@H]1CSSC[C@@H](C(=O)O)NC(=O)[C@H](Cc2c[nH]c3ccccc23)NC(=O)[C@H](CC(N)=O)NC(=O)[C@H](CCCCN)NC(=O)[C@H](Cc2ccccc2)NC(=O)[C@H](CCCCN)NC1=O` [FFVLKFLLKWAGKVGLEHLACKFKNWC]: the minimum inhibitory concentration (MIC) in assay [14] worked out at 0.465 µM (≈ 1.5 µg/mL); in assay [15], 3.87 µM (≈ 12.5 µg/mL); in assay [13], 1.94 µM (≈ 6.25 µg/mL); against Shigella dysenteriae it was 0.465 µM (≈ 1.5 µg/mL); in [16], 3.87 µM (≈ 12.5 µg/mL).

For `CC[C@H](C)[C@H](NC(=O)CN)C(=O)N[C@@H](CC(C)C)C(=O)N[C@@H](CCCCN)C(=O)N[C@@H](CO)C(=O)N[C@@H](CC(C)C)C(=O)N[C@@H](CC(C)C)C(=O)N[C@@H](CCCCN)C(=O)N[C@@H](CCCCN)C(=O)N[C@@H](CC(C)C)C(=O)N[C@@H](CCCCN)C(=O)N[C@@H](CCCCN)C(=O)N[C@H](C(=O)N[C@H](C(=O)N[C@@H](C)C(=O)N[C@@H](CCCCN)C(N)=O)[C@@H](C)CC)[C@@H](C)CC` [GILKSLLKKLKKIIAK], the MIC against Bacillus subtilis 168 is 7 µM (≈ 12.6 µg/mL); in assay [3], 24 µM (≈ 43 µg/mL); against Escherichia coli B it was 10 µM (≈ 17.9 µg/mL); in assay [4], 3 µM (≈ 5.38 µg/mL); in assay [5] it was 5 µM (≈ 8.97 µg/mL); in the assay with Pseudomonas aeruginosa it was 8.9 µM (≈ 16 µg/mL). Further, the minimum inhibitory concentration (MIC) in the assay with Staphylococcus aureus 1 was determined as 4.3 µM (≈ 7.71 µg/mL); in assay [6], 17 µM (≈ 30.5 µg/mL); with Staphylococcus aureus, 10 µM (≈ 17.9 µg/mL); in assay [7], 2.2 µM (≈ 3.95 µg/mL).

`CC[C@H](C)[C@H](NC(=O)[C@H](CCCCN)NC(=O)[C@H](Cc1c[nH]c2ccccc12)NC(=O)[C@H](Cc1c[nH]c2ccccc12)NC(=O)[C@@H](NC(=O)[C@H](CCCCN)NC(=O)[C@H](Cc1c[nH]c2ccccc12)NC(=O)[C@@H](N)CC(C)C)[C@@H](C)CC)C(=O)N[C@@H](Cc1c[nH]c2ccccc12)C(=O)N[C@@H](CCCN=C(N)N)C(=O)N[C@H](C(=O)N[C@@H](Cc1c[nH]c2ccccc12)C(=O)N[C@@H](Cc1c[nH]c2ccccc12)C(=O)N[C@@H](CC(N)=O)C(=O)N[C@@H](Cc1c[nH]c2ccccc12)C(=O)N[C@@H](CCCN=C(N)N)C(=O)O)C(C)C` [LWKIWWKIWRVWWNWR]: the minimum inhibitory concentration (MIC) in [17], in assay [18], in assay [19] and in assay [20] was not below 52.4 µM throughout.

The values above are taken from DBAASP.
